Measurements as given in PMC12750995, “Conformational Dynamics in the Cell Membrane Interactions of Bispecific Targeted Degrader Therapeutics” (Journal of Medicinal Chemistry, 2025).

Key:
[1] = set-up: method as in earlier work; details: rodents; tissue-to-plasma distribution ratios (Kp) indicating substantial binding to tissue components; ref 16 (ARV-110), ref 17 (A947); cited from earlier work
HEK293 cell homogenate = experiment: Equilibrium dialysis binding to HEK293 cell homogenate (fraction unbound); assay type: in vitro ADME; details: equilibrium dialysis, HEK293 cell homogenate, 0.1 μM
Method: (§1) The unbound fraction of a selected series of PROTACs was determined through equilibrium dialysis against the cell homogenate. HEK293 cells (ATCC, Manassas, VA) were grown in Dulbecco’s modified Eagle’s medium (DMEM) supplemented with 10% fetal bovine serum (FBS) at 37 °C, 95% relative humidity, and 5% CO2. Cell pellets were harvested using 0.05% trypsin and centrifuged at 260g for 5 min. The cells were resuspended in Dulbecco’s phosphate buffer (DPBS), counted using a Luna II cell counter (Logos Biosystems, Anyang, South Korea) and centrifuged at 260g. The supernatant was discarded, and cell pellets were stored at −80 °C prior to cell homogenate preparation. On the day of the experiment, cell pellets were thawed and resuspended in Hank’s balanced salt solution (HBSS) buffered with 20 mM HEPES (pH 7.4) to a concentration of 10 × 10^6 cells/mL. The cell suspension was homogenized using ultrasonication for 10 s at 20% intensity while kept on ice.
(§2) Compound stability was assessed by adding the compound-spiked cell homogenate to an empty well in the dialysis cassette. At the end of the experiment, these concentrations were compared to identical control samples stored at 4 °C. Mass balance was calculated at the end of each experiment. Further, in all wells, two control compounds (atorvastatin and lopinavir) were included to ensure that the assay plate was functional. All compounds were tested in triplicate in one experiment. Compound 2 was only detected on the cell homogenate side, and thus, the concentration on the buffer side was set to half of the lower limit of quantification to allow calculation of an approximate cell homogenate binding.
(§3) Final samples were matrix matched by taking 1 part sample and 1 part blank cell homogenate or buffer. Proteins were precipitated using 1 part matrix matched sample and 3 parts acetonitrile supplemented with 0.3% formic acid (FA) and 5 nM verapamil (internal standard), and this was diluted 1:1 with Milli-Q prior to centrifugation at 2500g for 20 min. Compound concentrations in the supernatant were quantified using a reversed phase system with a Waters Acquity UPLC HSS T3 column (50 × 2.1 mm, 1.8 μm) in an Aquity UPLC connected to a Xevo TQ-XS mass spectrometer (Waters Corp., Milford, MA). The chromatographic run was done using solvent A (0.1% FA in Milli-Q) and solvent B (0.1% FA in acetonitrile Optima LC/MS grade (Fisher Scientific)) with isocratic conditions between 0 and 0.3 min (99.8% solvent A and 0.2% solvent B), a linear gradient between 0.3 and 1.3 min (from 0.2% to 95% solvent B), isocratic conditions between 1.3 and 1.8 min (95% solvent B), and equilibration back to start conditions between 1.8 and 2.3 min. Mass transitions, cone voltages, and collision energies can be found in Table S4.

[2] = as above; assay type: in vitro ADME; details: human, pH 7.4; fraction unbound in HEK293 cell homogenate, 10 × 10^6 cells/mL, 0.1 μM, 4 h, 37 °C; read-out: fu,hom
Method: as §1, §2, §3

Caco-2 monolayer = experiment: Caco-2 A-B passive permeability with preincubation, transporter-inhibited; assay type: in vitro ADME; details: recovery from donor and receiver compartments, 0-120 min
Method: (§4) Transepithelial transport of the compounds through a Caco-2 monolayer (ATCC, HTB-37) was determined in 14–18 days old monolayers in Costar 24-well cell culture cluster plates (polycarbonate membrane, 0.4 μm pore size). Chamber volumes were 200 and 800 μL on the apical and basolateral sides of the cell monolayers, respectively, and all incubations were performed with prewarmed buffers in an orbital shaking incubator at 480 rpm and 37 °C. Prior to the assay, cells were washed with HBSS supplemented with 25 mM HEPES (HBSS-HEPES), pH 7.4, to remove the culture medium. After 15 min of equilibration, the transepithelial electrical resistance (TEER) was determined to assess acceptance of the cell plates into the assay. A second measurement and a lucifer yellow leakage determination was carried out after performing all the transport experiments to monitor integrity of the cell monolayers throughout the study.
(§5) Before the permeability study, to minimize nonspecific binding of PROTACs to the cells and plates, the cells were preincubated with 10 μM compound solution on the apical (donor) side for 1 h, analogous to Muschong et al. Then, cells were washed twice with HBSS-MES pH 6.5 containing 1% BSA. Then, permeability in the absorptive direction (A–B, apical-to-basolateral) was studied over 120 min at a 10 μM test compound concentration. The compound solutions were freshly prepared from DMSO stock solutions diluted into HBSS supplemented with 25 mM MES, pH 6.5, containing efflux inhibitors (50 μM quinidine, 30 μM benzbromarone, and 20 μM sulfasalazine); the final solvent concentration was always 0.5%.
(§6) Samples from the donor side (10 μL) were drawn immediately after the addition of the test compound and after 45 and 120 min. The donor samples were diluted 1:10 in HBSS. From the receiver compartment, an amount of 100 μL was withdrawn after 45 and 120 min and replaced with fresh HBSS-HEPES, pH 7.4.
(§7) Upon completion of the study, all samples were quenched with 300 μL of acetonitrile and analyzed subsequently using UPLC/MS/MS. The permeability was determined as the appearance rate of the compound on the receiver side, in relation to donor concentration, according to eq 4 Papp=dQ/[(dt)(T)]×A/D where dQ/[(dt)(T)] is the slope of the permeation profile across the Caco-2 cell monolayers, A is the surface area of the Transwell insert (0.33 cm^2), and D is the concentration on the donor side. Following the permeability experiments, recovery from the donor and receiver compartments was calculated using eq 5 recovery(%)(0−120min)=CR120×VR+CR45×0.1+CD45×0.01+CD120×VD/D0×VD×100

[3] = as above; assay type: in vitro ADME; details: human, Caco-2, with 50 μM quinidine, 30 μM benzbromarone, 20 μM sulfasalazine; Figure 3A grouping; read-out: Passive Caco-2 cell permeability group (high, moderate or low)
Method: as §4, §5, §6, §7

| fu,hom mass balance (HEK293 cell homogenate) [%] | fraction unbound at 4 h, 0.1 μM [2] | Papp Recovery (%) (0-120 min) (Caco-2 monolayer) | Papp A→B at 120 min, 10 μM [3] [×10⁻⁶ cm/s] | Structure (SMILES) | tissue distribution [1] |
| --- | --- | --- | --- | --- | --- |
| – | – | – | – | N#Cc1ccc(O[C@H]2CC[C@H](NC(=O)c3ccc(N4CCC(CN5CCN(c6cc7c(cc6F)C(=O)N(C6CCC(=O)NC6=O)C7=O)CC5)CC4)nn3)CC2)cc1Cl (stereo partly shown) [ARV-110] | widespread and extensive tissue distribution |
| 118 | 0.011 | 39 | < 0.5 | COc1cc2c(Oc3ccc(NC(=O)C4(C(=O)Nc5ccc(F)cc5)CC4)cc3F)ccnc2cc1OCCCCOCCCCOCC(=O)NC(C(=O)N1CC(O)CC1C(=O)NCc1ccc(-c2scnc2C)cc1)C(C)(C)C (stereo not shown) [Compound 1] | – |
| 111 | 0.24 | 94 | < 0.5 | Cc1ccc(C(=O)NCCCCc2cn(CCCC(=O)NCCCCNc3cccc4c3C(=O)N(C3CCC(=O)NC3=O)C4=O)nn2)cc1-n1c(C)cc(OCc2ccc(F)cc2F)c(Br)c1=O (stereo not shown) [Compound 3] | – |
| 76 | 0.396 | 84 | 0.5 to 10 | CC(=O)c1c(C)c2cnc(Nc3ccc(N4CCN(CCOCCOCCOCCNC(=O)COc5cccc6c5C(=O)N([C@H]5CCC(=O)NC5=O)C6=O)CC4)cn3)nc2n(C2CCCC2)c1=O [Compound 5] | – |
